Measurements: US6924309B2 (Children, Youth and Women's Health Service Incorporated, priority 1999, dated 2005)
≈ marks a conversion by molar mass, not a printed value. Where two headings read alike, the source gives them in different places. Each block holds one compound with its values, some of them ahead of it.

How the values were obtained:
[1] = test system: Plasmodium falciparum isolates 3D7, FC27, K+; test: Radiometric (3H-hypoxanthine) assay on asexual blood stages of P. falciparum; assay type: cell-based; details: for EC50: Plasmodium falciparum, read-out: EC50 against P. falciparum
Protocol: Using the radiometric assay^(36), the effects of the Lx compounds were examined for antimalarial activity. The Plasmodium falciparum isolates used were 3D7, FC27, K^1 and K^+. These were maintained in human blood group O^+ erythrocytes essentially as described previously using RPM-1640 (HEPES modification) supplemented with 0.25% D-glucose, 0.2% Tess buffer (Sigma Chemical Co, Lt Louis, Mo.) and 10% heat inactivated (56° C., 20 min) human blood group AB serum. Cultures were maintained in tissue culture flasks (Corning, N.Y.) at 37° C. under an atmosphere of 1% 2, 5% CO2 in N2. P. falciparum cultures containing approximately 3.0:% parasitaemia were adjusted to 1×10^8 erythrocytes/ml. To 50 μl of the parasite-erythrocyte culture (5×10^6 erythrocytes) in wells of 96-well microdilution plates wvas added 50 μl of the designated concentration of fatty acid or equivalent amounts of solutions or media. The treated cultures were incubated at 37° C. for 4 h and then pulsed with 50 μl (2.5 μCi) of ^3H-hypoxanthine. After a further 18 h incubation the parasites-erythrocytes were harvested onto glass fibre filter papers using a cell harvester. The amount of radioactivity incorporated was measured in a β-counter. The results have been expressed as % inhibition of parasite growth i.e. the dpm in the fatty acid diluent−dpm in the fatty acid treated cultures/dpm in diluent×100.

[2] = Petri-dish thin film autoxidation of arachidonic acid with thia fatty acids and sulfides (HPLC)
Protocol: A stock solution in dichioromethane (2 ml) containing arachidonic acid 1 (18 mg) and 3-[(3Z,6Z)-nona-3,6dienylthio]propionic acid 106 (18 mg) was prepared with lauric acid (18 mg) as an internal standard. Samples of the stock solution (100 μl) were added to glass Petri-dishes followed by ethanol (400 μl). After evaporation of the solvent, a well-distributed thin film was formed on each Petri-dish. The Petri-dishes were placed in a desiccator, which was then evacuated, filled with oxygen and stored in the darkness. Dishes were removed from the desiccator after 1, 2, 3, 5 and 7 days. The mixture on each dish was redissolved in diethyl ether and transferred to a 2 ml vial. After evaporation of the solvent, the residue was dissolved in the HPLC mobile phase (100 μl) and 10% of the solution was analysed by HPLC using a reverse phase column (octadecylsilane) (4.6 mm×250 mm, 3 μm) and a refractive index detector.
Autoxidation of arachidonic acid was conducted in the presence of compound 19 and lauric acid. Stock solutions of arachidonic acid, compound 19 and lauric acid in dichloromethane with equal concentrations were added to a 25 ml round-bottomed flask, and the solvent was evaporated to leave a thin film on the internal surface of the flask. The flask was then filled with oxygen and kept in the dark. The percentages of arachidonic acid and compound 19 remaining after 7 days were measured by HPLC. The same assay was carried out simultaneously with several flasks but the results were not reproducible. The variation was attributed to differences in oxygen concentration and the surface area of the thin films formed in the flasks. Therefore, in order to establish a reproducible assay for the analysis of the autoxidation of arachidonic acid, Petri-dishes with uniform size (80 mm in diameter) were used instead of flasks for thin film formation and the oxidation was carried out by placing the Petri-dishes in a dessicator filled with oxygen. To assess this method, thin firms of arachidonic acid with lauric acid as a standard were prepared on six Petri-dishes using identical treatment, and then subjected to oxidation in the same dessicator filled with oxygen. After 24 h, the percentage of arachidonic acid recovered following autoxidation in each Petri-dish was determined by HPLC. […] The advantage of using a Petri-dish over a flask is that the thin films on each Petri-dish are spread over the same area, and each Petri-dish is exposed to oxygen to the same extent.
Using the Petri-dish assay method, the effects of the thia PUFAs and sulfides 106 and 108-111, along with compounds 18, 19 and 3-[(Z,Z,Z)-(octadeca-9,12,15-trienylthio)] propionic acid 112 which were available in the laboratory, on the autoxidation of arachidonic acid, were examined. In addition, the stability of these compounds in the presence of arachidonic acid was also investigated. Arachidonic acid and lauric acid as a standard were mixed with each sulfur compound at different ratios and the mixtures were subjected to thin film autoxidation. The mixtures were analysed by HPLC after 1,2,3,5 and 7 days.

[3] = Thin film autoxidation of arachidonic acid with compounds 16-19 (HPLC)
Source text: Subsequently, the autoxidation of compounds 16-19 and their effects on the autoxidation of arachidonic acid were investigated. In these experiments, a thin film assay method was employed. For each reaction, arachidonic acid was mixed with one of the synthetic compounds 16, 17, 18 or 19 at 1:1 ratio with or without the radical initiator, azobisisobutyronitrile (AIBN). A reverse phase HPLC method was used to simultaneously measure the relative amounts of arachidonic acid and the synthetic compounds 16, 17, 18 or 19 recovered following 60 or 70 hours or 7 days of thin film autoxidation.

15-LO = molecular target: T1, 15-LO (Glycine max, UniProt P08170); test: Effect on 15-LO catalysed oxidation of arachidonic acid; assay type: biochemical, soybean
T1 construct: purchased Sigma Chemical Company
T1 sequence (P08170 1-839): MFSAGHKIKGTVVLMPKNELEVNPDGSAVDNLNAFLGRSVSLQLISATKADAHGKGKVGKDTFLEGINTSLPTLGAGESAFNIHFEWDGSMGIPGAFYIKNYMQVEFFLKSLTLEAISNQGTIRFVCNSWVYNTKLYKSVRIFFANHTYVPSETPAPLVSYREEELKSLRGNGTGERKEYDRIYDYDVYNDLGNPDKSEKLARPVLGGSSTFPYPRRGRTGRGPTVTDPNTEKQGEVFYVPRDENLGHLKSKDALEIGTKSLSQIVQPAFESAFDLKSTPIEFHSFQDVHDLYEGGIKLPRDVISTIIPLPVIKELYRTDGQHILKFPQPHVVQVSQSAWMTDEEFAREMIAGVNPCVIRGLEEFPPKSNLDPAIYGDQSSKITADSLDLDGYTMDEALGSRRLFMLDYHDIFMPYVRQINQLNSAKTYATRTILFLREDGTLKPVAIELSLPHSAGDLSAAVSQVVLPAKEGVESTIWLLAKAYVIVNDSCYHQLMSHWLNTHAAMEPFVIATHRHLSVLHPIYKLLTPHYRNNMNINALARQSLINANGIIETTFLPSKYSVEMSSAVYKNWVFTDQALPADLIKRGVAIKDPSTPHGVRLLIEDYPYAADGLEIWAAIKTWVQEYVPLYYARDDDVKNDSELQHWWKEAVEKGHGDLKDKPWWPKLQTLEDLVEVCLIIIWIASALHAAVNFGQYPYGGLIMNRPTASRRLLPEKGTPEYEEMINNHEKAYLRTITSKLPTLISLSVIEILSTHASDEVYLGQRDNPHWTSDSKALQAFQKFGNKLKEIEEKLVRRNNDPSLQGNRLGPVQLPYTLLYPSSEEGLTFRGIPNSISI

[4] = ratio 2:1, with AIBN at 10% the amount of arachidonic acid, 1 day
[5] = ratio 2:1, with AIBN at 10% the amount of arachidonic acid, 2 days
[6] = ratio 2:1, with AIBN at 10% the amount of arachidonic acid, 3 days
[7] = ratio 2:1, with AIBN at 10% the amount of arachidonic acid, 5 days
[8] = ratio 2:1, with AIBN at 10% the amount of arachidonic acid, 7 days
[9] = ratio arachidonic acid:compound 1:1, 1 day
[10] = ratio arachidonic acid:compound 1:1, 2 days
[11] = ratio arachidonic acid:compound 1:1, 3 days
[12] = ratio arachidonic acid:compound 1:1, 5 days
[13] = ratio arachidonic acid:compound 1:1, 7 days
[14] = ratio arachidonic acid:compound 2:1, 1 day
[15] = ratio arachidonic acid:compound 2:1, 2 days
[16] = ratio arachidonic acid:compound 2:1, 3 days
[17] = ratio arachidonic acid:compound 2:1, 5 days
[18] = ratio arachidonic acid:compound 2:1, 7 days
[19] = ratio arachidonic acid:compound 10:1, 1 day
[20] = ratio arachidonic acid:compound 10:1, 2 days
[21] = ratio arachidonic acid:compound 10:1, 3 days

EC50 ([1]; 3D7, isolate FC27): 12 mg/L (≈ 36.5 µM)
EC50 ([1]; 3D7, isolate K+): 4 mg/L (≈ 12.2 µM)
Structure (SMILES): CC/C=C\C/C=C\C/C=C\C/C=C\C/C=C\C/C=C\CCC(=O)O [22:6n-3, docosahexaenoic acid, reference compound]
Reduction of antimalarial activity by human serum ([1]; compound 20 μg/ml, presence of human serum): 85%

Structure (SMILES): CCCCC/C=C\C/C=C\C/C=C\C/C=C\CCCCSCCC(=O)O [Compound 19]
Antioxidant effect on autoxidation of arachidonic acid (in words) [2]: effective antioxidants
Antioxidant effect on autoxidation of arachidonic acid (in words) ([2]; 1:1 ratio with arachidonic acid): almost complete prevention of autoxidation
Antioxidant effect on autoxidation of arachidonic acid (in words) ([2]; compound at one-tenth that of arachidonic acid): very slow over the first 3 days
Arachidonic acid (%) recovered following autoxidation in the presence of the compound [2, 4]: 100%
Compound (%) recovered following autoxidation with arachidonic acid [2, 4]: 98%
Arachidonic acid (%) recovered following autoxidation in the presence of the compound [2, 5]: 98%
Compound (%) recovered following autoxidation with arachidonic acid [2, 5]: 95%
Arachidonic acid (%) recovered following autoxidation in the presence of the compound [2, 6]: 94%
Compound (%) recovered following autoxidation with arachidonic acid [2, 6]: 80%
Arachidonic acid (%) recovered following autoxidation in the presence of the compound [2, 7]: 49%
Compound (%) recovered following autoxidation with arachidonic acid [2, 7]: 47%
Arachidonic acid (%) recovered following autoxidation in the presence of the compound [2, 8]: 35%
Compound (%) recovered following autoxidation with arachidonic acid [2, 8]: 43%
Arachidonic acid (%) recovered following autoxidation in the presence of the compound [2, 9]: 99%
Compound (%) recovered following autoxidation with arachidonic acid [2, 9]: 99%
Arachidonic acid (%) recovered following autoxidation in the presence of the compound [2, 10]: 100%
Compound (%) recovered following autoxidation with arachidonic acid [2, 10]: 100%
Arachidonic acid (%) recovered following autoxidation in the presence of the compound [2, 11]: 99%
Compound (%) recovered following autoxidation with arachidonic acid [2, 11]: 99%
Arachidonic acid (%) recovered following autoxidation in the presence of the compound [2, 12]: 99%
Compound (%) recovered following autoxidation with arachidonic acid [2, 12]: 98%
Arachidonic acid (%) recovered following autoxidation in the presence of the compound [2, 13]: 98%
Compound (%) recovered following autoxidation with arachidonic acid [2, 13]: 99%
Arachidonic acid (%) recovered following autoxidation in the presence of the compound [2, 14]: 100%
Compound (%) recovered following autoxidation with arachidonic acid [2, 14]: 98%
Arachidonic acid (%) recovered following autoxidation in the presence of the compound [2, 15]: 99%
Compound (%) recovered following autoxidation with arachidonic acid [2, 15]: 96%
Arachidonic acid (%) recovered following autoxidation in the presence of the compound [2, 16]: 100%
Compound (%) recovered following autoxidation with arachidonic acid [2, 16]: 96%
Arachidonic acid (%) recovered following autoxidation in the presence of the compound [2, 17]: 98%
Compound (%) recovered following autoxidation with arachidonic acid [2, 17]: 94%
Arachidonic acid (%) recovered following autoxidation in the presence of the compound [2, 18]: 97%
Compound (%) recovered following autoxidation with arachidonic acid [2, 18]: 90%
Arachidonic acid (%) recovered following autoxidation in the presence of the compound [2, 19]: 99%
Compound (%) recovered following autoxidation with arachidonic acid [2, 19]: 95%
Arachidonic acid (%) recovered following autoxidation in the presence of the compound [2, 20]: 99%
Compound (%) recovered following autoxidation with arachidonic acid [2, 20]: 87%
Arachidonic acid (%) recovered following autoxidation in the presence of the compound [2, 21]: 87%
Compound (%) recovered following autoxidation with arachidonic acid [2, 21]: 38%
Arachidonic acid (%) recovered following autoxidation in the presence of the compound ([2]; ratio arachidonic acid:compound 10:1, 5 days): 42%
Arachidonic acid (%) recovered following autoxidation in the presence of the compound ([2]; ratio arachidonic acid:compound 10:1, 7 days): 17%
Percentage of arachidonic acid recovered in the presence of the compound ([3]; ratio 1:1, 10% AIBN 60 h): 100%
Percentage of compound recovered (with arachidonic acid) ([3]; ratio 1:1, 10% AIBN 60 h): 96%
Percentage of arachidonic acid recovered in the presence of the compound ([3]; ratio 1:1, no additive 70 h): 101%
Percentage of compound recovered (with arachidonic acid) ([3]; ratio 1:1, no additive 70 h): 98%
Percentage of arachidonic acid recovered in the presence of the compound ([3]; ratio 1:1, no additive 7 day): 102%
Percentage of compound recovered (with arachidonic acid) ([3]; ratio 1:1, no additive 7 day): 96%
Autoxidation of arachidonic acid in the presence of the compound (in words) ([3]; ratio 1:1, with or without AIBN): completely inhibited

Effect on 15-LO catalysed oxidation of AA (15-LO): Nil
Structure (SMILES): CC/C=C\C/C=C\C/C=C\C/C=C\C/C=C\C/C=C\CCC[N+](=O)[O-] [Lx5, (a11-z)-1-Nitro-4,7,10,13,16,19-docosahexaene]
